The results in this text go back to PubChem BioAssay AID624367 (Broad Institute, 2012).

Calls of active or inactive are those of the source. No rule for the calls is given here.

System in one assay: not listed separately
Put plainly: lymphoblastoid cell cytotoxicity, dose response, cytotoxicity control, plate reader, dry powder, set 2 (AID 624367). The settings on record: Lymphoblastoid cell line (LCL) cytotoxicity, plate reader; at 35 µM (top of the series).
Regarding `C[C@H]1CN([C@@H](C)CO)C(=O)c2c(c3ccccc3n2C)-c2ccccc2CO[C@@H]1CN(C)C(=O)Nc1ccc(F)cc1`, the activity change, negative = cytotoxicity was 1.36% (inactive).

As to `O=C(C[C@@H]1C[C@H]2c3cc(NS(=O)(=O)c4ccc(F)cc4)ccc3O[C@H]2[C@H](CO)O1)NCc1ccc(Oc2ccccc2)cc1`, the activity change, negative = cytotoxicity was -1.34% (inactive).

In the case of `CC(C)(C)[S@@](=O)N1Cc2cc(C(=O)NCc3ccccc3F)nc(-c3cccc(-c4ccncc4)c3)c2[C@H]1CCO`, the activity change, negative = cytotoxicity is 0.812% (inactive).

Consider `C[C@H]1CN([C@@H](C)CO)C(=O)Cc2cc(NC(=O)Cc3ccccc3)ccc2O[C@H]1CN(C)Cc1ccc(C(F)(F)F)cc1`, for which the activity change, negative = cytotoxicity was 2.21% (inactive).

Take `C[C@H](NC(=O)C[C@H]1C=C[C@@H](NC(=O)Cc2ccccn2)[C@@H](CO)O1)c1ccccc1`: the activity change, negative = cytotoxicity is 6.04% (inactive).

As to `COC(=O)C[C@@H]1C[C@@H]2c3cc(NC(=O)CN(C)C)ccc3O[C@@H]2[C@@H](CO)O1`, the activity change, negative = cytotoxicity was -2.96% (inactive).

In the case of `C[C@H](NC(=O)C[C@@H]1C=C[C@H](NC(=O)Cc2ccccn2)[C@@H](CO)O1)c1ccccc1`, the activity change, negative = cytotoxicity was 4.27% (inactive).

Regarding `C[C@@H](NC(=O)C[C@H]1C=C[C@@H](NC(=O)Cc2ccccn2)[C@H](CO)O1)c1ccccc1`, the activity change, negative = cytotoxicity was -1.43% (inactive).

Regarding `C[C@@H]1CN([C@H](C)CO)S(=O)(=O)c2ccc(C#C[C@@H](C)O)cc2O[C@H]1CN(C)Cc1ccc(-c2ccccc2)cc1`, the activity change, negative = cytotoxicity was -3.17% (inactive).

Regarding `C[C@H](CO)N1C[C@H](C)[C@@H](CN(C)C(=O)Nc2ccc(F)cc2)OCc2ccccc2-c2c(n(C)c3ccccc23)C1=O`, the activity change, negative = cytotoxicity was -2.81% (inactive).

Regarding `CC(C)c1ccc(NC(=O)C[C@H]2CC[C@H]3[C@@H](COc4ccc(NC(=O)Nc5ccc(F)c(F)c5)cc4C(=O)N3C)O2)cc1`, the activity change, negative = cytotoxicity is -0.979% (inactive).

As to `Cc1cc(C(=O)Nc2ccc3c(c2)C(=O)N(C)[C@@H]2CC[C@@H](CC(=O)NCc4ccc(-c5ccccc5)cc4)O[C@H]2CO3)no1`, the activity change, negative = cytotoxicity is -5.25% (inactive).

Regarding `C[C@H](NC(=O)C[C@H]1C=C[C@@H](NC(=O)Cc2ccccn2)[C@H](CO)O1)c1ccccc1`, the activity change, negative = cytotoxicity was 9.63% (inactive).

Consider `O=C(C[C@@H]1C[C@H]2c3cc(NC(=O)c4ccc5c(c4)OCO5)ccc3O[C@H]2[C@H](CO)O1)NC1CCCCC1`, for which the activity change, negative = cytotoxicity is -16.7% (inactive).

Consider `COc1cccc(S(=O)(=O)N(C)C[C@H]2Oc3cc(C4=CCCCC4)ccc3S(=O)(=O)N([C@@H](C)CO)C[C@@H]2C)c1`, for which the activity change, negative = cytotoxicity was 4.96% (inactive).

Turning to `O=C(C[C@@H]1CC[C@@H]2[C@H](COC[C@H](O)CN2Cc2ccc3c(c2)OCO3)O1)Nc1ccc(-c2ccccc2)cc1`, the activity change, negative = cytotoxicity was -4.84% (inactive).

Regarding `COc1ccccc1C#Cc1ccc2c(c1)O[C@H](CN(C)Cc1cccnc1)[C@H](C)CN([C@H](C)CO)S2(=O)=O`, the activity change, negative = cytotoxicity is -2.03% (inactive).

As to `C[C@@H](NC(=O)C[C@H]1C=C[C@@H](NC(=O)Cc2ccccn2)[C@@H](CO)O1)c1ccccc1`, the activity change, negative = cytotoxicity is -7.23% (inactive).

Consider `COc1ccccc1C#Cc1cnc2c(c1)C(=O)N([C@@H](C)CO)C[C@H](C)[C@@H](CN(C)C(=O)c1ccc3c(c1)OCO3)O2`, for which the activity change, negative = cytotoxicity was 16.2% (inactive).

For `O=C(C[C@H]1CC[C@@H]2[C@H](COC[C@H](O)CN2Cc2ccc(Oc3ccccc3)cc2)O1)N1CCc2ccccc2C1`, the activity change, negative = cytotoxicity was -13.9% (inactive).

As to `N#C[C@H]1[C@H](c2ccc(C#Cc3ccccc3F)cc2)[C@@H](CO)N1C(=O)c1cccnc1`, the activity change, negative = cytotoxicity was 3.23% (inactive).

For the molecule `CC(C)(C)[S@@](=O)N1Cc2cc(C(=O)NCCc3ccncc3)nc(-c3cccc(-c4cccnc4)c3)c2[C@H]1CCO`, the activity change, negative = cytotoxicity was 4.85% (inactive).

As for `C[C@@H]1CN([C@H](C)CO)C(=O)Cc2cc(NC(=O)Cc3ccccc3)ccc2O[C@H]1CN(C)Cc1ccc(C(F)(F)F)cc1`, the activity change, negative = cytotoxicity is 3.94% (inactive).

For the molecule `N#C[C@@H]1[C@H](c2ccc(C#Cc3ccccc3F)cc2)[C@@H](CO)N1C(=O)c1cccnc1`, the activity change, negative = cytotoxicity is -5.47% (inactive).

The next assay relates to Lymphoblastoid cell line (LCL) cytotoxicity, plate reader. Described as above.
Conditions: not given
In the case of `O=C(C[C@H]1C[C@H]2c3cc(NC(=O)c4ccc5c(c4)OCO5)ccc3O[C@H]2[C@H](CO)O1)NCc1ccc(Oc2ccccc2)cc1`, the AC35 was 33.8 µM.

As to `O=C(C[C@H]1C[C@@H]2c3cc(NS(=O)(=O)c4ccc(F)cc4)ccc3O[C@@H]2[C@@H](CO)O1)NCc1ccc(Oc2ccccc2)cc1`, the AC35 was 34.7 µM.

With `CN(C)c1ccc2c(c1)[C@@H]1C[C@H](CC(=O)NCc3ccc(Oc4ccccc4)cc3)O[C@@H](CO)[C@@H]1O2`, the AC35 was 30.4 µM.

Regarding `O=C(C[C@@H]1C[C@@H]2c3cc(NC(=O)c4ccc5c(c4)OCO5)ccc3O[C@@H]2[C@@H](CO)O1)NCc1ccc(Oc2ccccc2)cc1`, the AC35 is 16 µM.

With `O=C(Nc1ccc(C(F)(F)F)cc1)Nc1ccc2c(c1)[C@@H]1C[C@H](CC(=O)N3CCc4ccccc4C3)O[C@H](CO)[C@@H]1O2`, the AC35 is 36.7 µM.

Consider `O=C(C[C@@H]1C[C@@H]2c3cc(NS(=O)(=O)c4ccc(F)cc4)ccc3O[C@@H]2[C@@H](CO)O1)NCc1ccc(Oc2ccccc2)cc1`, for which the AC35 was 22.2 µM.
